Measured values: US20180221295A1, “PHARMACEUTICAL COMPOSITION COMPRISING ELECTROHYDRODYNAMICALLY OBTAINED FIBRES, THE COMPOSITION HAVING IMPROVED RESIDENCE TIME ON THE APPLICATION SITE” (DERMTREAT APS, priority 2015, published 2018)

Assays:
[1] = In vitro drug release testing of fibres in Green's cell culture medium (HPLC); type: physicochemical; conditions: 1.2x1.2 cm samples in 5 mL Green's cell culture medium, 37° C., 30, 60 and 120 minutes
Method: Compositions: Same as in example 4.
Composition of Green's cell culture medium - Dulbecco's Modified Eagle's Medium: Ham's F12 medium in a 3:1 (v/v) ratio supplemented with 10% (v/v) FCS • 0.1 μM cholera toxin • 10 ng/ml of epidermal growth factor (EGF) • 0.4 μg/ml hydrocortisone • 0.18 mM adenine • 5 μg/ml insulin • 5 μg/ml transferrin • 2 mM glutamine • 0.2 μM triiodothyronine • 0.625 μg/ml amphotericin B • 100 IU/ml penicillin • 100 μg/ml streptomycin
Method of Analysis: • Samples of dimensions 1.2×1.2 cm were cut from each fibre composition and were placed in vials containing 5 mL of Green's cell culture medium. • All vials were incubated at 37° C. for 30, 60 and 120 minutes. • At those time points, 1.5 mL of cell culture media were removed from each vial • The concentration of clobetasol propionate released from the fibres was measured using high-performance liquid chromatography (HPLC).

[2] = in vivo; cited from earlier work
[3] = in vivo; cited from earlier work; remark: listed apart in the source

## CCC(=O)O[C@]1(C(=O)CCl)[C@@H](C)C[C@H]2[C@@H]3CCC4=CC(=O)C=C[C@]4(C)[C@@]3(F)[C@@H](O)C[C@@]21C [clobetasol propionate]
[1]
  Release of clobetasol propionate from electrospun fibres: released after immersion in cell culture media

## C/C=C(/C)C(=O)O[C@H]1C(C)=C[C@]23C(=O)[C@@H](C=C(CO)[C@@H](O)[C@]12O)[C@H]1[C@@H](C[C@H]3C)C1(C)C [Ingenol mebutate]
[2]
  Absorption through the skin: practically not absorbed through the skin

## C[C@]12CCC(=O)C=C1CC[C@@H]1[C@@H]2[C@@H](O)C[C@@]2(C)[C@H]1CC[C@]2(O)C(=O)CO [Hydrocortisone]
[3]
  Absorption from the gut: no significant absorption from the gut
